According to ChEMBL document CHEMBL2086348, “Amide-based derivatives of β-alanine hydroxamic acid as histone deacetylase inhibitors: attenuation of potency through resonance effects” (Bioorg Med Chem Lett, 2012):

Assays:
Histone deacetylase 1 [1] = target: T1, Histone deacetylase 1 (Homo sapiens, UniProt Q13547); assay: Inhibition of HDAC1 by fluorometric assay
[2] = Antiproliferative activity against human BE(2)-C cells at 50 uM after 72 hrs by Alamar blue assay; assay type: functional
[3] = Antiproliferative activity against human BE(2)-C cells after 72 hrs by Alamar blue assay; assay type: functional, cell-based
[4] = target: Histone deacetylase (Homo sapiens) (UniProt Q13547+O15379+Q9UBN7+Q92769+Q9UQL6+Q8WUI4+Q9BY41+Q96DB2+P56524+Q9UKV0+Q969S8); assay: Inhibition of HDAC in human HeLa cell extracts at 1 uM; assay type: protein assay
Histone deacetylase 1 [5] = target: T1, Histone deacetylase 1; assay: Inhibition of HDAC1 at 250 uM by fluorometric assay

T1 sequence (Q13547 whole entry): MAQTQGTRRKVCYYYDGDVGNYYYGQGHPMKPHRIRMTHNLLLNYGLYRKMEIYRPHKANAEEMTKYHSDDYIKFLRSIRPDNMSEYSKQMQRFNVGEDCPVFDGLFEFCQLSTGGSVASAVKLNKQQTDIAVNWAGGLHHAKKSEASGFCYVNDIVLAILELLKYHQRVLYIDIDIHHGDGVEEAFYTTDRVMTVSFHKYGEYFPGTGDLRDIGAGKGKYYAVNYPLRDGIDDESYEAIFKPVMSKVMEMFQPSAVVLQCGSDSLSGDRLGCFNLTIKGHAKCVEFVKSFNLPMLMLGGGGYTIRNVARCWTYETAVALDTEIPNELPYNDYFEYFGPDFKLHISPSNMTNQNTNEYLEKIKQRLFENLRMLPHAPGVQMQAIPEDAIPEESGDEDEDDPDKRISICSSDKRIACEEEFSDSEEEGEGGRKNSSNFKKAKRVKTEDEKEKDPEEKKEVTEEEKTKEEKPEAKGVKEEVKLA

Structure (SMILES)	IC50 (Histone deacetylase 1 [1]) [µM]	Activity [2] [%]	IC70 [3] [µM]	inhibition [4] [%]	inhibition (Histone deacetylase 1 [5]) [%]
CN(C)c1ccc(CC(=O)NCCC(=O)NO)cc1	38	62.8	–	–	–
CC(/C=C/C(=O)NO)=C\[C@@H](C)C(=O)c1ccc(N(C)C)cc1 [TRICHOSTATIN]	–	–	0.05	–	–
Cc1ccc(CCC(=O)NCCC(=O)NO)cc1	80	72.4	–	–	–
Cc1ccc(OCC(=O)NCCC(=O)NO)cc1	84	80.4	–	–	–
O=C(CCNC(=O)Cc1ccc([N+](=O)[O-])cc1)NO	39.4	87.9	–	–	–
O=C(/C=C/c1ccccc1)NCCC(=O)NO	67	88.6	–	19	–
CN(C)c1ccc(/C=C/C(=O)NCCC(=O)NO)cc1	> 250	57	–	–	40
